Assay results taken from US20220280644A1, “"TRPswitch" - A STEP FUNCTION CHEMO-OPTOGENETIC LIGAND” (UNIVERSITY OF UTAH RESEARCH FOUNDATION, priority 2019, published 2022).

Legend:
[1] = test system: wild-type zebrafish larvae; assay: Behavioral assay: light-induced motion response of wild-type larvae; type: in vivo, Zebrafish (Danio rerio)
Method: A total of 1,000 compounds were selected from the ChemBridge Corp. catalog. Compounds were dissolved in DMSO at a stock concentration of 1 μg/μL (˜1.5 mM). The library was screened at a 1:100 dilution in E3 solution for a final concentration of ˜15 μM. Negative controls were treated with an equal volume of DMSO. Groups of 3 larvae at 3 days post fertilization (dpf) were distributed into the wells of 96-well clear bottom black microplates (07-200-567; Fisher Scientific) in 150 μL E3 before the addition of small molecules. Stock solutions of compounds were added directly to zebrafish in the wells of a 96 well plate (Corning 3631), mixed, and allowed to incubate for 1 h in the dark at 28.5° C. prior to behavioral evaluation in the behavioral assay. Ordering information: 1 (5533696; ChemBridge); 3 (5538408; ChemBridge).
Larvae in each of the wells were exposed to four 1 second flashes of light stimulus in the following order: 450-500 nm (WL1), 415-455 nm (WL2), 352-402 nm (WL3), white light (WL4), with a 5 second inter-stimulus interval. Digital video recording was performed for 5 seconds before the first light stimuli and continued throughout the stimulation sequence. Band pass filters (Semrock FF02-475/50, FF02-435/40, FF01-377/50) were used to restrict the excitation light to the indicated wavelengths. […] 290 frames of digital video were recorded per well at 10 FPS using an EMCCD camera (C9100; Hamamatsu) mounted on an inverted compound microscope (AxioObserver A1; Zeiss) with a NA 0.03 1.25× objective and a barrier with a 0.7 mm diameter opening to restrict light scattering to the sample. MetaMorph software (Molecular Devices) was used to control the execution of TTL signals and camera capture using the built-in stream acquisition with trigger function. Each video was saved for review. Light stimuli were generated with an ozone free 300-Watt xenon bulb housed in a Lambda LS illuminator (Sutter Instruments). A dichroic mirror (T510LPXRXT; Chroma) was used for appropriate excitation of samples and bright field acquisition. Schott longpass absorption glass (RG610; Chroma) was added in the transmitted light path to reduce unwanted excitation to the well and to provide sufficient light for video recording. All behavioral experiments were conducted at room temperature. […]
To analyze digital video recordings, custom MetaMorph software scripts were used to automatically threshold the video to identify the area of larvae in each frame. Threshold images of the frames after each light activation event were overlaid to calculate a new combined threshold area. The motion index was calculated as the percentage change between the threshold area in the frame right before light activation and the new combined threshold area. This motion index correlates with the overall amount of motion in the well.

WT embryos = assay: Rescue experiment, WT embryos; type: in vivo, zebrafish; conditions: 20 μM, motion within 5 s after 1 s WL3
Method: For Trpa1b ohnolog and paralog rescue experiments, Trpa1b^−/− embryos were injected with ngn1:zTrpa1b-2A-mCherry (partial plasmid sequence in SEQ ID NO:5), ngn1:zTrpa1a-2A-mCherry, ngn1:hTRPA1-2A-EGFP or ngn1:mTRPA1-2A-mCherry at the 1-cell stage for mosaic Rohon-beard neuron expression. Embryos were screened at 2 dpf for fluorescent expression in Rohon-beard neurons, incubated with 20 μM TRPswitch-B for 1 hr and decapitated posterior to the eyes right before experiments. NA 0.25 5× objective and 1 s WL3 light illumination was used.
To test the potential cross activity of TRPswitch-B on the zebrafish ohnolog Trpa1a and on mammalian orthologs, zebrafish Trpa1a, mouse TRPA1 or human TRPA1 were transiently re-expressed in the Rohon-beard neurons of mutant Trpa1b^−/− zebrafish and performed light-induced motion response experiments in the presence of TRPswitch-B. Rescue experiments were performed in Trpa1b^−/− zebrafish with transient mosaic re-expression of zebrafish Trpa1b (zTrpa1b), zebrafish Trpa1a (zTrpa1a), mouse TRPA1 (mTRPA1) or human TRPA1 (hTRAP1) in Rohon-beard neurons. Embryos were pre-treated with 20 μM TRPswitch-B and decapitated right before light stimulation to eliminate the light response mediated by the retina (Table 5). […]

[2] = Z→E thermal isomerisation kinetics; type: physicochemical
Method: In order to determine the Z→E thermal isomerisation kinetics in DMSO-d6 a ˜20 mM solution of the relevant compound was irradiated using a Luzchem LZC-4V photoreactor fitted with 12×8 W LZC-420 lamps (420 nm peak emission) until no further change was observable by ^1H NMR. For 30% water:DMSO samples, a 15 μM solution of the relevant compound was irradiated in a quartz cuvette using 365 nm LEDs (3×800 mW Nichia NCSU276A) until no further change was observed by UV-Vis spectroscopy. Compounds (˜25 μM solutions in DMSO) were treated analogously. In the case of compounds studied by NMR, the change in Z-isomer percentage was followed as a function of time through integration of the relevant peaks. […]
For data collected via ^1H NMR, the natural log of the Z isomer concentration was plotted against time to yield a straight line implying first order kinetics. The gradient of this line was used to determine the rate constant for Z→E conversion from which the thermal half-life could be calculated:
For data collected via UV-Vis Spectroscopy, absorbance data at a fixed wavelength was fitted using the following, first order equation: […]
where k represents the rate constant; A∞, A0 and At are the absorbances of the pure E-state, Z-rich state, and time t, respectively. […]

With `Cc1nn(C)c(C)c1/N=N/c1ccc(NC(=O)c2cccs2)cc1NC(=O)c1cccs1` [Compound 9, (E)-N,N′-(4-((1,3,5-trimethyl-1H-pyrazol-4-yl)diazenyl)-1,3-phenylene)bis(thiophene-2-carboxamide)] the “light-induced motion response (in vivo activity)” value ([1]; 3 dpf wild-type larvae, 1 s flashes WL1-WL4) was “comparable biological response to TRPswitch-A”, the “effect of DABCO on light-induced motion response” value ([1]; DABCO, singlet oxygen quencher) was “no effect” and the “% response” value (WT embryos) was 65%. The “thermal half-lives” value [2] was “long thermal half-lives”.
